By Ki is commonly meant a dissociation constant, usually derived from enzyme kinetics or from competition with a known ligand. Low values mean tighter binding, high ones weaker binding.

SMILES strings stand for the structures. Bounds are passed on as bounds.

The assay has as its target T1, Gamma-aminobutyric acid receptor subunit rho-3 (Homo sapiens, UniProt A8MPY1).
T1 sequence (A8MPY1 whole entry): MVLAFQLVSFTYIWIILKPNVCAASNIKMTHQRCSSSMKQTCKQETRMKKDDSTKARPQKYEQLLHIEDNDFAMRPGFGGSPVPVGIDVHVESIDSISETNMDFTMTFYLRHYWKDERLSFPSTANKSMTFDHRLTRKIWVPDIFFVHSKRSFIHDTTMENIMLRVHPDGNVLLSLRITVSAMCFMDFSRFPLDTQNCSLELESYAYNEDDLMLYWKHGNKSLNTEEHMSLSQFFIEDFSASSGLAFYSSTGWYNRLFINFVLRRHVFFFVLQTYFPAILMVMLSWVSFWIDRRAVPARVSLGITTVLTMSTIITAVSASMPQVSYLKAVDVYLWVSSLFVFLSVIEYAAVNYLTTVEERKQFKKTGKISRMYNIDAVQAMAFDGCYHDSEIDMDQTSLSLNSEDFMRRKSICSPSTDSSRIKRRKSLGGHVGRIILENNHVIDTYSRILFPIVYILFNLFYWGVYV
`NCc1cc(=O)[nH]o1`: the affinity corresponds to a Ki of 460 nM. `O=C(O)Cc1c[nH]cn1` [1H-imidazol-4-ylacetic acid] showed an inhibition constant (Ki) of 150 nM. `N[C@@H]1C(=O)N2C(C(=O)O)=C(CSc3cnn[nH]3)CS[C@H]12` [CAS_37539-03-0] came in with an inhibition constant Ki of 360 nM. Next, `O=C(O)C1=CCNCC1` [1,2,3,6-Tetrahydro-pyridine-4-carboxylic acid]: above 10000 nM; `NCCCC(=O)O` [4-amino-n-[2,3-3H]butyric acid]: 580 nM.
